Laboratory results as given in patent publication US10702504B2, “Degradation of tripartite motif-containing protein 24 (TRIM24) by conjugation of TRIM24 inhibitors with E3 ligase ligand and methods of use” (Dana-Farber Cancer Institute, Inc., priority 2016, dated 2020).
pIC50: −log10 of the molar value.

Target: PHD-bromodomain of TRIM24 (Homo sapiens (Human), UniProt O15164)
Test: TRIM24 binding alpha assay
Conditions: Alpha Assay binding to TRIM24; compounds 50 μM to 0.002 μM
Protocol: The alpha TRIM24 binding assay is used to assess the binding of the compounds of the application. Compounds are added at various concentrations as well as a vehicle control. Compounds that bind to TRIM24 compete away the interaction between the PHD-bromodomain of TRIM24 bound to the donor bead, and the H3K23ac histone peptide bound to the acceptor bead, which causes a decrease in signal. IC50 values are calculated.
The alpha assay was used to assess the binding of the compounds of the application to TRIM24 at various concentrations. All compounds were added at concentrations from 50 μM to 0.002 μM. Compounds that bind to TRIM24 compete with the PHD-bromodomain of TRIM24 in interacting with the donor bead, and the H3K23ac histone peptide bound to the acceptor bead, which causes a decrease in signal. IC50 values were calculated by using Graphpad PRISM's log(inhibitor) vs. response—variable slope (four parameters).

Sequence of PHD-bromodomain of TRIM24 (O15164 824-1006): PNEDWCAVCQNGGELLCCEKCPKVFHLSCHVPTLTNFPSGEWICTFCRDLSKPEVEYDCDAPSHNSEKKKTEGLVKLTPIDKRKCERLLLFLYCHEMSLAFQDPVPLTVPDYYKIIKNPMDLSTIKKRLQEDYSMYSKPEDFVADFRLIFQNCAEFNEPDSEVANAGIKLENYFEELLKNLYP

SMILES | pIC50
COc1ccc(S(=O)(=O)Nc2cc3c(cc2Oc2ccc(OCC(=O)NCCCCNC(=O)COc4cccc5c4C(=O)N(C4CCC(=O)NC4=O)C5=O)cc2)n(C)c(=O)n3C)cc1OC (centres unmarked) [I-A1, 2-(4-((6-((3,4-dimethoxyphenyl)sulfonamido)-1,3-dimethyl-2-oxo-2,3-dihydro-1H-benzo[d]imidazol-5-yl)oxy)phenoxy)-N-(4-(2-((2-(2,6-dioxopiperidin-3-yl)-1,3-dioxoisoindolin-4-yl)oxy)acetamido)butyl)acetamide] | < 6.30
Cc1nc(S(=O)(=O)Nc2cc3c(cc2Oc2cccc(OCC(C)C)c2)n(C)c(=O)n3C)cn1C [Cmpd C, reference compound] | > 7.30
COc1ccc(Oc2cc3c(cc2NS(=O)(=O)c2ccc(OC)c(OC)c2)n(C)c(=O)n3C)cc1 [Cmpd A, reference compound] | < 6.30
CCCOc1cccc(Oc2cc3c(cc2NS(=O)(=O)c2cccc(C(=O)NCCOCCOCCOc4cc(-c5scnc5C)ccc4CNC(=O)[C@@H]4C[C@@H](O)CN4C(=O)[C@H](C(C)C)N4Cc5ccccc5C4=O)c2)n(C)c(=O)n3C)c1 [I-B1, (2S,4R)—N-(2-(2-(2-(2-(3-(N-(1,3-dimethyl-2-oxo-6-(3-propoxyphenoxy)-2,3-dihydro-1H-benzo[d]imidazol-5-yl)sulfamoyl)benzamido)ethoxy)ethoxy)ethoxy)-4-(4-methylthiazol-5-yl)benzyl)-4-hydroxy-1-((S)-3-methyl-2-(1-oxoisoindolin-2-yl)butanoyl)pyrrolidine-2-carboxamide] | 6.30 to 7.00
CCCOc1cc(OCCCCN(C)C)cc(Oc2cc3c(cc2NS(=O)(=O)c2cccc(C(=O)NCCCCNC(=O)COc4cccc5c4C(=O)N(C4CCC(=O)NC4=O)C5=O)c2)n(C)c(=O)n3C)c1 (centres unmarked) [I-A10, 3-(N-(6-(3-(4-(dimethylamino)butoxy)-5-propoxyphenoxy)-1,3-dimethyl-2-oxo-2,3-dihydro-1H-benzo[d]imidazol-5-yl)sulfamoyl)-N-(4-(2-((2-(2,6-dioxopiperidin-3-yl)-1,3-dioxoisoindolin-4-yl)oxy)acetamido)butyl)benzamide] | > 7.30
COc1ccc(S(=O)(=O)Nc2cc3c(cc2Oc2cccc(OCc4ccccc4)c2)n(C)c(=O)n3C)cc1OC [Cmpd B, reference compound] | 7.00 to 7.30
CCCOc1cccc(Oc2cc3c(cc2NS(=O)(=O)c2cccc(C(=O)NCCOCCOCC(=O)N[C@H](C(=O)N4C[C@H](O)C[C@H]4C(=O)NCc4ccc(-c5scnc5C)cc4)C(C)(C)C)c2)n(C)c(=O)n3C)c1 [I-B2, (4R)-1-((S)-12-(tert-butyl)-1-(3-(N-(1,3-dimethyl-2-oxo-6-(3-propoxyphenoxy)-2,3-dihydro-1H-benzo[d]imidazol-5-yl)sulfamoyl)phenyl)-1,10-dioxo-5,8-dioxa-2,11-diazatridecan-13-oyl)-4-hydroxy-N-(4-(4-methylthiazol-5-yl)benzyl)pyrrolidine-2-carboxamide] | > 7.30
Cc1nc(S(=O)(=O)Nc2cc3c(cc2Oc2cccc(OCC(=O)NCCCOCCOCCOCCCNC(=O)COc4cccc5c4C(=O)N(C4CCC(=O)NC4=O)C5=O)c2)n(C)c(=O)n3C)cn1C (centres unmarked) [I-A9, 2-(3-((6-((1,2-dimethyl-1H-imidazole)-4-sulfonamido)-1,3-dimethyl-2-oxo-2,3-dihydro-1H-benzo[d]imidazol-5-yl)oxy)phenoxy)-N-(1-((2-(2,6-dioxopiperidin-3-yl)-1,3-dioxoisoindolin-4-yl)oxy)-2-oxo-7,10,13-trioxa-3-azahexadecan-16-yl)acetamide] | < 6.30
CCCOc1cccc(Oc2cc3c(cc2NS(=O)(=O)c2cccc(C(=O)NCCCCNC(=O)COc4cccc5c4C(=O)N(C4CCC(=O)NC4=O)C5=O)c2)n(C)c(=O)n3C)c1 (centres unmarked) [I-A4, 3-(N-(1,3-dimethyl-2-oxo-6-(3-propoxyphenoxy)-2,3-dihydro-1H-benzo[d]imidazol-5-yl)sulfamoyl)-N-(4-(2-((2-(2,6-dioxopiperidin-3-yl)-1,3-dioxoisoindolin-4-yl)oxy)acetamido)butyl)benzamide] | 7.00 to 7.30
Cc1nc(S(=O)(=O)Nc2cc3c(cc2Oc2cccc(OCC(=O)NCCCCCCCCNC(=O)COc4cccc5c4C(=O)N(C4CCC(=O)NC4=O)C5=O)c2)n(C)c(=O)n3C)cn1C (centres unmarked) [I-A8, 2-(3-((6-((1,2-dimethyl-1H-imidazole)-4-sulfonamido)-1,3-dimethyl-2-oxo-2,3-dihydro-1H-benzo[d]imidazol-5-yl)oxy)phenoxy)-N-(8-(2-((2-(2,6-dioxopiperidin-3-yl)-1,3-dioxoisoindolin-4-yl)oxy)acetamido)octyl)acetamide] | < 6.30
CCCOc1cc(OCCCCN(C)C)cc(Oc2cc3c(cc2NS(=O)(=O)c2cccc(C(=O)NCCCOCCOCCOCCCNC(=O)COc4cccc5c4C(=O)N(C4CCC(=O)NC4=O)C5=O)c2)n(C)c(=O)n3C)c1 (centres unmarked) [I-A12, 3-(N-(6-(3-(4-(dimethylamino)butoxy)-5-propoxyphenoxy)-1,3-dimethyl-2-oxo-2,3-dihydro-1H-benzo[d]imidazol-5-yl)sulfamoyl)-N-(1-((2-(2,6-dioxopiperidin-3-yl)-1,3-dioxoisoindolin-4-yl)oxy)-2-oxo-7,10,13-trioxa-3-azahexadecan-16-yl)benzamide] | > 7.30
CCCOc1cc(OCCCCN(C)C)cc(Oc2cc3c(cc2NS(=O)(=O)c2cccc(C(=O)NCCOCCOCCOCC(=O)N[C@H](C(=O)N4C[C@H](O)C[C@H]4C(=O)NCc4ccc(-c5scnc5C)cc4)C(C)(C)C)c2)n(C)c(=O)n3C)c1 [I-B4, (2S,4R)-1-((S)-15-(tert-butyl)-1-(3-(N-(6-(3-(4-(dimethylamino)butoxy)-5-propoxyphenoxy)-1,3-dimethyl-2-oxo-2,3-dihydro-H-benzo[d]imidazol-5-yl)sulfamoyl)phenyl)-1,13-dioxo-5,8,11-trioxa-2,14-diazahexadecan-16-oyl)-4-hydroxy-N-(4-(4-methylthiazol-5-yl)benzyl)pyrrolidine-2-carboxamide] | > 7.30
CCCOc1cccc(Oc2cc3c(cc2NS(=O)(=O)c2cccc(C(=O)NCCCCNC(=O)CC45CC6CC(CC(C6)C4)C5)c2)n(C)c(=O)n3C)c1 [Cmpd E, reference compound] | 6.30 to 7.00
CCCOc1cccc(Oc2cc3c(cc2NS(=O)(=O)c2cccc(C(=O)NCCCCCCCCNC(=O)COc4cccc5c4C(=O)N(C4CCC(=O)NC4=O)C5=O)c2)n(C)c(=O)n3C)c1 (centres unmarked) [I-A5, 3-(N-(1,3-dimethyl-2-oxo-6-(3-propoxyphenoxy)-2,3-dihydro-1H-benzo[d]imidazol-5-yl)sulfamoyl)-N-(8-(2-((2-(2,6-dioxopiperidin-3-yl)-1,3-dioxoisoindolin-4-yl)oxy)acetamido)octyl)benzamide] | 6.30 to 7.00
Cc1nc(S(=O)(=O)Nc2cc3c(cc2Oc2cccc(OCC(=O)NCCCCNC(=O)COc4cccc5c4C(=O)N(C4CCC(=O)NC4=O)C5=O)c2)n(C)c(=O)n3C)cn1C (centres unmarked) [I-A7, 2-(3-((6-((1,2-dimethyl-1H-imidazole)-4-sulfonamido)-1,3-dimethyl-2-oxo-2,3-dihydro-1H-benzo[d]imidazol-5-yl)oxy)phenoxy)-N-(4-(2-((2-(2,6-dioxopiperidin-3-yl)-1,3-dioxoisoindolin-4-yl)oxy)acetamido)butyl)acetamide] | < 6.30
CCCOc1cc(OCCCCN(C)C)cc(Oc2cc3c(cc2NS(=O)(=O)c2cccc(C(=O)NCCCCCCCCNC(=O)COc4cccc5c4C(=O)N(C4CCC(=O)NC4=O)C5=O)c2)n(C)c(=O)n3C)c1 (centres unmarked) [I-A11, 3-(N-(6-(3-(4-(dimethylamino)butoxy)-5-propoxyphenoxy)-1,3-dimethyl-2-oxo-2,3-dihydro-1H-benzo[d]imidazol-5-yl)sulfamoyl)-N-(8-(1-((2-(2,6-dioxopiperidin-3-yl)-1,3-dioxoisoindolin-4-yl)oxy)acetamido)octyl)benzamide] | > 7.30
CCCOc1cccc(Oc2cc3c(cc2NS(=O)(=O)c2ccc(OC)c(OC)c2)n(C)c(=O)n3C)c1 [Cmpd D, reference compound] | > 7.30
CCCOc1cccc(Oc2cc3c(cc2NS(=O)(=O)c2cccc(C(=O)NCCCOCCOCCOCCCNC(=O)COc4cccc5c4C(=O)N(C4CCC(=O)NC4=O)C5=O)c2)n(C)c(=O)n3C)c1 (centres unmarked) [I-A6, 3-(N-(1,3-dimethyl-2-oxo-6-(3-propoxyphenoxy)-2,3-dihydro-1H-benzo[d]imidazol-5-yl)sulfamoyl)-N-(1-((2-(2,6-dioxopiperidin-3-yl)-1,3-dioxoisoindolin-4-yl)oxy)-2-oxo-7,10,13-trioxa-3-azahexadecan-16-yl)benzamide] | > 7.30
COc1ccc(S(=O)(=O)Nc2cc3c(cc2Oc2ccc(OCC(=O)NCCCOCCOCCOCCCNC(=O)COc4cccc5c4C(=O)N(C4CCC(=O)NC4=O)C5=O)cc2)n(C)c(=O)n3C)cc1OC (centres unmarked) [I-A3, 2-(4-((6-((3,4-dimethoxyphenyl)sulfonamido)-1,3-dimethyl-2-oxo-2,3-dihydro-1H-benzo[d]imidazol-5-yl)oxy)phenoxy)-N-(1-((2-(2,6-dioxopiperidin-3-yl)-1,3-dioxoisoindolin-4-yl)oxy)-2-oxo-7,10,13-trioxa-3-azahexadecan-16-yl)acetamide] | < 6.30
COc1ccc(S(=O)(=O)Nc2cc3c(cc2Oc2ccc(OCC(=O)NCCCCCCCCNC(=O)COc4cccc5c4C(=O)N(C4CCC(=O)NC4=O)C5=O)cc2)n(C)c(=O)n3C)cc1OC (centres unmarked) [I-A2, 2-(4-((6-((3,4-dimethoxyphenyl)sulfonamido)-1,3-dimethyl-2-oxo-2,3-dihydro-1H-benzo[d]imidazol-5-yl)oxy)phenoxy)-N-(8-(2-((2-(2,6-dioxopiperidin-3-yl)-1,3-dioxoisoindolin-4-yl)oxy)acetamido)octyl)acetamide] | < 6.30
